Where a name gives a salt, the structure may show the parent alone.
What was measured:
[1] = tested on: monoclonal antibody 15F3.E5; test: Cross-reactivity of the monoclonal antibody, competitive ELISA on PLL-lysergic acid coated plates; format: binding, mouse; details: for IC50: antibody diluted 1:50, pre-incubated 1 h with lysergic acid derivative, absorbance at 405 nm, read-out: Molar Concentration at 50% Maximum Absorbance; for cross reaction of 15F3.E5 with lysergic acid derivative: at the concentrations tested
Protocol: Mouse monoclonal antibody was diluted 1:50 in ELISA diluent. Working dilutions of various lysergic acid derivatives ranging between 1.78×10^-6 to 3.93×10^-15 M were made in 1:10 increments in PBS and 50 uL aliquots were pre-incubated for 1 h with 50 uL of diluted antibody at room temperature. To determine presence of unbound antibody, pre-incubated antibody/lysergic derivatives were transferred to ELISA plates pre-coated with PLL-lysergic acid for 2 h at room temperature. After washing, ELISA plates were treated with 1:500 dilution of rabbit derived antimouse antibody conjugated to alkaline phosphatase:ELISA diluent for 2 h at room temperature and washed. Fifty microliters of alkaline phosphate substrate was added to each well and the characteristic yellow color indicating binding of mouse antibody to the PLL-lysergic acid measured at 405 nm on a Titertek Multiskan Model MCC/340 plate reader.

[2] = tested on: Angus steers; details: literature report; cited from earlier work
[3] = tested on: fescue toxicosis; details: literature report; cited from earlier work

Row | Structure (SMILES) | IC50 [1] | cross reaction of 15F3.E5 with lysergic acid derivative [1] | also measured
1 | CC(C)C[C@H]1C(=O)N2CCC[C@H]2[C@]2(O)O[C@](NC(=O)[C@@H]3C=C4c5cccc6[nH]c(Br)c(c56)C[C@H]4N(C)C3)(C(C)C)C(=O)N12 [2-bromo-a-ergocryptine] | > 1330 nM |  | 
2 | C[C@@H](CO)NC(=O)[C@@H]1C=C2c3cccc4[nH]cc(c34)C[C@H]2N(C)C1 [Ergonovine] | 1.69 nM | cross reaction | 
3 | CN1C[C@H](C(=O)N[C@]2(C)O[C@@]3(O)[C@@H]4CCCN4C(=O)[C@H](Cc4ccccc4)N3C2=O)C=C2c3cccc4[nH]cc(c34)C[C@H]21 [Ergotamine tartrate] | 7.69 nM | cross reaction | 
4 | CC(C)[C@H]1C(=O)N2CCC[C@H]2[C@]2(O)O[C@@](C)(NC(=O)[C@@H]3C=C4c5cccc6[nH]cc(c56)C[C@H]4N(C)C3)C(=O)N12 [Ergovaline] |  | cross reaction | 
5 | CN1C[C@H](C(=O)O)C=C2c3cccc4[nH]cc(c34)C[C@H]21 [Lysergic Acid] | 0.0373 nM | cross reaction | 
6 | CN1C[C@H](CO)C=C2c3cccc4[nH]cc(c34)C[C@H]21 [Lysergol] |  | cross reaction | 
7 | CC(C)C1C(=O)N2CCCC2C2(O)OC(NC(=O)C3CC4c5cccc6[nH]cc(c56)CC4N(C)C3)(C(C)C)C(=O)N12 (stereo not shown) [dihydro-ergocornine] | > 1680 nM |  | 
8 | CC(C)[C@@]1(NC(=O)[C@@H]2C[C@@H]3c4cccc5[nH]cc(c45)C[C@H]3N(C)C2)O[C@@]2(O)[C@@H]3CCCN3C(=O)[C@H](Cc3ccccc3)N2C1=O [dihydro-ergocristine] | > 1780 nM |  | 
9 | CCN(CC)CCNC(=O)c1cc(Cl)c(N)cc1OC [metoclopramide] |  |  | effect on serum prolactin, weight gains and hair coats [2]: increased serum prolactin and weight gains
10 | Cc1ncc(C[n+]2csc(CCO)c2C)c(N)n1 [thiamine] |  |  | effect on symptoms of fescue toxicosis [3]: partially alleviated symptoms

Source: patent US5718900A, “Vaccines and methods for preventing and treating Fescue toxicosis in herbivores” (priority 1994, dated 1998)
